Assays:
tankyrase 1 = target: T1, tankyrase 1 (Homo sapiens, UniProt O95271); experiment: Tankyrase inhibitory activity test (ELISA, auto-poly(ADP-ribosyl)ation), TNKS1; type: biochemical; conditions: Flag-tagged tankyrase 1 (SAM+PARP), read-out: TNKS1 (inhibitory activity against tankyrase 1), IC50 rating
T1 construct: tankyrase 1 (1,024-1, 327aa, SAM+PARP); made in house; host or cells: cell-free protein expression system
Protocol: (§1) The enzymatic activity of tankyrase 1 and the enzymatic activity of tankyrase 2 were measured by the ELISA method based on assessment of auto-poly(ADP-ribosyl)ation to evaluate the tankyrase inhibitory activity of the compound prepared in each of Compound Examples (test compound) (inhibitory activity against tankyrase 1 (TNKS1) and inhibitory activity against tankyrase 2 (TNKS2)). First, Flag-tagged tankyrase 1 (1,024-1, 327aa, SAM+PARP) and tankyrase 2 (613-1, 116aa, ANK5+SAM+PARP) were synthesized with a cell-free protein expression system, and diluted with a Tris buffer solution (50 mM Tris-HCl (pH 8.0), 150 mM NaCl, 10% glycerol). 50 μL of the diluted tankyrase 1 or tankyrase 2 was added to a plate with an anti-FLAG M2 monoclonal antibody immobilized thereon (Anti-FLAG High-Sensitivity M2-Coated Plate) (Sigma-Aldrich), and the mixture was left to stand overnight at 4° C. Thereafter, the plate was washed four times with a PBS (PBST) buffer containing 0.1% TritonX-100.
(§2) Subsequently, the test compound diluted with an assay buffer (50 mM Tris-HCl (pH 8.0), 4 mM MgCl2, 0.2 mM DTT) (DMSO was used as a control) was added to each well of the plate, and the mixture was left to stand at room temperature for 10 minutes. Thereafter, a biotin-labeled NAD solution (225 μM NAD, 25 μM 6-Biotin-17-NAD (Travigen, Inc.)) was added and mixed as a donor substrate, and the mixture was reacted at 30° C. for 45 minutes. To blank wells was added distilled water instead of the biotin-labeled NAD solution. After the reaction, the plate was washed with a PBST buffer four times. Thereafter, HRP (horseradish peroxidase)-labeled streptavidin (Travigen, Inc.) was diluted with a PBS buffer by 1,000 times, and added to each well, and the mixture was reacted at room temperature for 20 minutes. The plate was washed with a PBST buffer four times, a chemiluminescent substrate solution TACS-Sapphire (Travigen, Inc.) was then added to each well, the mixture was reacted at room temperature for 20 minutes, and thechemiluminescence intensity was measured using a chemiluminescence measuring apparatus.
(§3) The residual enzymatic activity in the presence of the test compound was determined from the following expression. On the basis of the residual enzymatic activity at each of multiple concentrations of the test compound, the enzyme inhibitory activity was calculated in terms of a 50%-inhibition concentration (IC50 value) using data analysis software Origin (LightStone Corp.). Residual activity (%)={(chemiluminescence intensity with test compound added)−(chemiluminescence intensity of blank)}/{(chemiluminescence intensity of control)−(chemiluminescence intensity of blank))

tankyrase 2 = target: T2, tankyrase 2 (Homo sapiens, UniProt Q9H2K2); experiment: Tankyrase inhibitory activity test (ELISA, auto-poly(ADP-ribosyl)ation), TNKS2; type: biochemical; conditions: Flag-tagged tankyrase 2 (ANK5+SAM+PARP), read-out: TNKS2 (inhibitory activity against tankyrase 2), IC50 rating
T2 construct: tankyrase 2 (613-1, 116aa, ANK5+SAM+PARP); made in house; host or cells: cell-free protein expression system
Protocol: as §1, §2, §3

tankyrase-2 = target: T3, tankyrase-2 (Homo sapiens, UniProt Q9H2K2); experiment: X-ray diffraction of tankyrase-2 crystal soaked with the compound; type: binding
T3 sequence (Q9H2K2 1-1166): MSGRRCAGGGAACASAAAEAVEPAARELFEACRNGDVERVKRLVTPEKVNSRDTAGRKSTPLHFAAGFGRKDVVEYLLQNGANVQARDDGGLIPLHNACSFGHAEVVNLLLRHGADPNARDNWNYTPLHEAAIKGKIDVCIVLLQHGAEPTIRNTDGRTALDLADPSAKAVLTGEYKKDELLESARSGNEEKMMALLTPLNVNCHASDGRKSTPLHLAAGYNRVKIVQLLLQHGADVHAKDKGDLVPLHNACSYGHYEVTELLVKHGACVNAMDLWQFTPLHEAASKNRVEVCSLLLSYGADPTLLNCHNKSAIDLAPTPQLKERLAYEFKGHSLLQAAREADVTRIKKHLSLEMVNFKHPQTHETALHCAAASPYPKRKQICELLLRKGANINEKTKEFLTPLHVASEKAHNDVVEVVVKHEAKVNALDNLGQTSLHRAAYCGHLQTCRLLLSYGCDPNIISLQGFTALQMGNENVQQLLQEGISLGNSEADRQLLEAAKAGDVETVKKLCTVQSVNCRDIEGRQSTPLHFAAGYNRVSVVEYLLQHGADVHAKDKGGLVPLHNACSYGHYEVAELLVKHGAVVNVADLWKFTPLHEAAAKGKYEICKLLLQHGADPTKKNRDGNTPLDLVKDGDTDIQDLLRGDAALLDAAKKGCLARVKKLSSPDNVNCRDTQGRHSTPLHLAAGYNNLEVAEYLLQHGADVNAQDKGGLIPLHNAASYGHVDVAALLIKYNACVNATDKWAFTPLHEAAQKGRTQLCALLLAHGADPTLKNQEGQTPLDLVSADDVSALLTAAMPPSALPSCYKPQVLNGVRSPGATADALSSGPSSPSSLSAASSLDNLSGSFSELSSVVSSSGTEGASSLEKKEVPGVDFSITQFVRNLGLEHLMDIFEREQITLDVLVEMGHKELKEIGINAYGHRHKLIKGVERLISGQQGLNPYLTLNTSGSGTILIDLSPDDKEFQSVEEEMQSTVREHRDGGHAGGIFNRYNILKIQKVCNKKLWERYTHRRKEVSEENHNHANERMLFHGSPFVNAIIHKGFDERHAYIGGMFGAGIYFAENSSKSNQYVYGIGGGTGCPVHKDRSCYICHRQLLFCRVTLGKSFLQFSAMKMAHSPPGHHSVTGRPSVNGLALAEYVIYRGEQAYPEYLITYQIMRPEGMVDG
Excerpt: In the present invention, whether the tankyrase inhibitory compound is a nicotinamide-type compound or an adenosine-type compound can be determined by X-ray diffraction, more specifically a method in which a complex is crystallized from a mixed liquid of a tankyrase crystal prepared beforehand and the tankyrase inhibitory compound, and subjected to X-ray diffraction (soaking method), or a method in which a complex is crystallized from a mixed liquid having the tankyrase inhibitory compound coexisting with tankyrase in a state before the crystallization, and subjected to X-ray diffraction (co-crystallization). Whether the tankyrase inhibitory compound is a dual-type compound can be determined by preparing a crystal under any one of the above-described conditions, and performing X-ray diffraction.
X-ray diffraction data of a tankyrase-2 crystal soaked with the compound prepared in Compound Example 1 was measured with BL26B2 Beam Line in a large synchrotron radiation facility Spring-8 (Sayo-gun, Hyogo). The wavelength of the X-ray was 1.000 Å, and MX-225 (Rayonix, LLC) was used as a detector. The diffraction data was treated with XDS (Kabsch, 2010) and the CCP4 program (Winn et al., 2011).

T1 sequence (O95271 1024-1327): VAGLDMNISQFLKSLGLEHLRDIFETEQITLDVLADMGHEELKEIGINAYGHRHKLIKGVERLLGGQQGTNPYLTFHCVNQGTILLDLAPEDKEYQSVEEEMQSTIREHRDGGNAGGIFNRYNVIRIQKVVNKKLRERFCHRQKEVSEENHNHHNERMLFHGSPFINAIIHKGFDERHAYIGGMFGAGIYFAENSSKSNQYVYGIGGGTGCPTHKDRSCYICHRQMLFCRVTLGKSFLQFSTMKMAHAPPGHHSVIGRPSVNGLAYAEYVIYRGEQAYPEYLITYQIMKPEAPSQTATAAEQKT

IC50 (tankyrase 1) [nM]	IC50 (tankyrase 2) [nM]	Compound	binding pocket type by X-ray diffraction (tankyrase-2)
< 20	< 20	CCOc1ccc(-c2n[nH]nc2[C@H]2NC(=O)c3cccc(C)c3N2)cc1 [Compound Example 101, (2R)-2-[5-(4-Ethoxyphenyl)-2H-1,2,3-triazol-4-yl]-8-methyl-2,3-dihydro-1H-quinazolin-4-one]	nicotinamide-type compound which binds to the nicotinamide binding pocket of tankyrase
< 20	20 to 200	COc1ccc(-c2c[nH]nc2C2NC(=O)c3cccc(C)c3N2)cc1 (centres unmarked) [Compound Example 113, 2-[4-(4-Methoxyphenyl)-1H-pyrazol-3-yl]-8-methyl-2,3-dihydro-1H-quinazolin-4-one]	

Reference: patent US20210060016A1, “ANTICANCER AGENT” (JAPANESE FOUNDATION FOR CANCER RESEARCH, priority 2017, published 2021)
